From paper PMC8076300, “A novel cystathionine γ-lyase inhibitor, I194496, inhibits the growth and metastasis of human TNBC via downregulating multiple signaling pathways” (Scientific Reports, 2021)

Biological target: T1, cystathionine γ-lyase (CSE) (Homo sapiens, UniProt P32929)
T1 construct: gene CTH
Experiment: methylene blue H2S production assay with purified recombinant CSE, L-cysteine substrate
Assay type: biochemical

T1 sequence (P32929 whole entry): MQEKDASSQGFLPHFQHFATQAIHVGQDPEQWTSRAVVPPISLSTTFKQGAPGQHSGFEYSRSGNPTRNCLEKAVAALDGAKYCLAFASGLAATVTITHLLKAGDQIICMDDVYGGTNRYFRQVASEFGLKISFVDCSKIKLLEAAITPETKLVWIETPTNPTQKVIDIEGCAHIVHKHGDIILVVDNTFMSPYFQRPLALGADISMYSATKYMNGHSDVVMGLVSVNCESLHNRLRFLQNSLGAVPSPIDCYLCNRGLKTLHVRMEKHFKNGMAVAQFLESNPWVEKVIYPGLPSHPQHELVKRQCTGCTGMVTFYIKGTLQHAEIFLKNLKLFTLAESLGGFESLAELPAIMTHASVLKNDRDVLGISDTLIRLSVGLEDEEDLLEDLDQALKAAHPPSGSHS

How did the IC50 turn out when `COc1ccc(-c2cc(C(F)F)n3ncc(C(=O)Nc4ccc(S(=O)(=O)Nc5ccccc5OC)cc4)c3n2)cc1` [I194496, 7-(difluoromethyl)-N-{4-[(2-methoxyanilino)sulfonyl]phenyl}-5-(4-methoxyphenyl)pyrazolo[1,5-a]pyrimidine-3-carboxamide] was run?
The IC50 was 790 µM.
